In article PMC9136617 (Acta Pharmaceutica Sinica. B, 2022):

Legend:
PPARα = target: T1, PPARα (Homo sapiens, UniProt Q07869); assay: SPR; format: binding
T1 sequence (Q07869 1-468): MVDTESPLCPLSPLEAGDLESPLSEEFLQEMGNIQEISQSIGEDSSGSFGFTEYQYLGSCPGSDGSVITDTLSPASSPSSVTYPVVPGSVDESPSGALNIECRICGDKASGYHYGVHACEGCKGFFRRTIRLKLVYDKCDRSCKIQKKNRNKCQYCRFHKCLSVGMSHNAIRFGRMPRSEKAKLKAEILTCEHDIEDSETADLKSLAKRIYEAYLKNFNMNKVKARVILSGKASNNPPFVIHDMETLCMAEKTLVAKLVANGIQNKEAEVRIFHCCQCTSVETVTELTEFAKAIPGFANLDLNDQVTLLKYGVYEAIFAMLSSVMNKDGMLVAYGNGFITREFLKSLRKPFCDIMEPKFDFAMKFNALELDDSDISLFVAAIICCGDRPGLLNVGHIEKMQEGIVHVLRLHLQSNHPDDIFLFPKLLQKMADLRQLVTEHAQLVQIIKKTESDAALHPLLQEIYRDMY

CYP2E1 = CYP2E1 (Homo sapiens, UniProt P05181); assay: incubation with recombinant human CYP2E1, metabolites by LC–MS/MS; format: biochemical
Chain of CYP2E1 (P05181 whole entry): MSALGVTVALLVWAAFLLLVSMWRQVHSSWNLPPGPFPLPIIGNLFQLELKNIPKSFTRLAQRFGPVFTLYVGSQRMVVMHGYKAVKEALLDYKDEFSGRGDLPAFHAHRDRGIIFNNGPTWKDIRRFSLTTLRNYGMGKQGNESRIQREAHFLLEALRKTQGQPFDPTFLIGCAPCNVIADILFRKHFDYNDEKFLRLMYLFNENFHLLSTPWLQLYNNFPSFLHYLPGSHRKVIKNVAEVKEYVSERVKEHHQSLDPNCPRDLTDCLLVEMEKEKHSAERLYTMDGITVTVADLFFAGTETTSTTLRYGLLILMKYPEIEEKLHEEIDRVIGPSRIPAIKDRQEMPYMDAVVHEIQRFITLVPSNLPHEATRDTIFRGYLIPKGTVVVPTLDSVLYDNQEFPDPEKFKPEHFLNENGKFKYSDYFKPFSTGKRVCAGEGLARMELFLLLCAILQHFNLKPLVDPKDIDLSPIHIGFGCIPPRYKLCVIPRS

Row | Kd (PPARα) [µM] | Compound | incubation with recombinant human CYP2E1, metabolites by LC-MS/MS (CYP2E1)
1 | 16.1 | CCCCC/C=C\C/C=C\C/C=C\C/C=C\CCCC(=O)O [AA, arachidonic acid] | All the compounds were metabolized by recombinant CYP2E1 and their metabolites identified by LC–MS/MS
2 | 14.3 | CC/C=C\C/C=C\C/C=C\C/C=C\C/C=C\C/C=C\CCC(=O)O [DHA, docosahexaenoic acid] | All the compounds were metabolized by recombinant CYP2E1 and their metabolites identified by LC–MS/MS
3 | 23.8 | CCCCC/C=C\C/C=C\CCCCCCCC(=O)O [LCA, 9,12-linoleic acid] | metabolic sites on LCA by recombinant CYP2E1 protein were at C-6 to C-10, C-16, and C-17
